Reference: patent US20210221785A1, “AMINO-PYRIMIDONYL DERIVATIVES, A PROCESS FOR THEIR PREPARATION AND PHARMACEUTICAL COMPOSITIONS CONTAINING THEM” (LES LABORATOIRES SERVIER, priority 2018, published 2021)

What follows are compounds tested against T1, His-His-USP7 (aa208-560, |C315A|) (Homo sapiens, UniProt Q93009, C315A) (assay: Evaluation of the inhibition of USP7 by the Fluorescence Intensity (FLINT) readings). Details: 0.25 nM His-His-USP7, compound incubated 60 minutes at 30° C., 500 nM Ubiquitin-Rhodamine-110 substrate; 50% reduction in kinetic rate.
T1 construct: His-His-USP7 (aa208-560, |C315A|); His-His (N)
Type: biochemical
Experimental: USP7 activity was measured using Rhodamine-110 c-terminal labelled Ubiquitin as a substrate (UbiQ Bio). Incubation with USP7 results in the release of Rhodamine-110 leading to an increase in fluorescence which can be used in the continuous measurement of USP7 activity.
The USP7 reactions were performed in a 50 μL volume, in 384 well black solid low binding plates (Corning #3575). The reaction buffer consisted of 100 mM Bicine pH 8.0, 0.01% TritonX100, 1 mM TCEP, and 10% DMSO.
0.25 nM His-His-USP7 (aa208-560, |C315A|) was incubated with compound (final concentration 10% DMSO) for 60 minutes at 30° C. The reaction was then initiated by the addition of 500 nM Ubiquitin-Rhodamme-110 substrate and the plate read every 3 minutes for 21 minutes to measure the release of Rhodamine-110. Fluorescence Intensity (FLINT) readings were measured using a […] plate reader (Ex.485 nm, Em.535 nm).
The inhibition of increasing doses of compound was expressed as a percentage reduction in kinetic rate compared to the kinetic rates established between ‘DMSO only’ and ‘total inhibition’ controls (no USP7). The inhibitory concentrations that gave a 50% reduction in kinetic rate (IC50) were determined, from 11-point dose response cures, in XL-Fit using a 4-Parameter Logistic Model 205 (Sigmoidal Dose-Response Model).

T1 sequence (Q93009 208-560 C315A): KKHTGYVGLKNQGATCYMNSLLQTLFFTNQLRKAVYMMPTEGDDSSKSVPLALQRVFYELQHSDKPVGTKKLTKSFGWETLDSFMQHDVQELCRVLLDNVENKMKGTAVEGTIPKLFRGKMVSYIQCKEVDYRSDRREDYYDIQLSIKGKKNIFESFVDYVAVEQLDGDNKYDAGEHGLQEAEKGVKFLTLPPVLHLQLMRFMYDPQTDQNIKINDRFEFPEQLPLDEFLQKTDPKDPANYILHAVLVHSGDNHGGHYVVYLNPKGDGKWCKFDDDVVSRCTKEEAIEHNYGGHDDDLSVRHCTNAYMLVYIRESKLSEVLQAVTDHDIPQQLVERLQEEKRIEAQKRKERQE

Compound | IC50 [nM]
Nc1c(Oc2ccc(CC(F)(F)F)cc2)ncn(CC2(O)CCN(C(=O)[C@@H]3CCC(F)(F)C[C@H]3c3ccccc3)CC2)c1=O [Example 37, 5-amino-3-({1-[(1R,2R)-4,4-difluoro-2-phenylcyclohexane-1-carbonyl]-4-hydroxypiperidin-4-yl}methyl)-6-[4-(2,2,2-trifluoroethyl)phenoxyl]pyrimidin-4(3H)-one] | 158
Nc1c(Oc2ccc(CCF)cc2)ncn(CC2(O)CCN(C(=O)[C@@H]3CCC(F)(F)C[C@H]3c3ccccc3)CC2)c1=O [Example 39, 5-amino-3-({1-[(1R,2R)-4,4-difluoro-2-phenylcyclohexane-1-carbanyl]-4-hydroxypiperidin-4-yl}methyl)-6-[4-(2-fluoroethyl)phenoxy]pyrimidin4(3H)-one] | 116
Nc1c(Oc2ccc(F)c(OC(F)(F)F)c2)ncn(CC2(O)CCN(C(=O)[C@@H]3CCC(F)(F)C[C@H]3c3ccccc3)CC2)c1=O [Example 40, 5-amino-3-({1-[(1R,2R)-4,4-difluoro-2-phenylcyclohexane-1-carbonyl]-4-hydroxypiperidin-4-yl}methyl)-6-[4-fluoro-3-(trifluoromethoxy)phenoxy]pyrimidin-4(3H)-one] | 132
Nc1c(Oc2cccc(C3CCCCN3)c2)ncn(CC2(O)CCN(C(=O)[C@@H]3CCC(F)(F)C[C@H]3c3ccccc3)CC2)c1=O (stereo partly drawn) [Example 47, 5-amino-3-({1-[(1R,2R)-4,4-difluoro-2-phenylcyclohexane-1-carbonyl]-4-hydroxypiperidin-4-yl}methyl)-6-[3-(piperidin-2-yl)phenoxy]pyrimidin-4(3H)-one] | 8.81
CC(C)(O)c1cccc(Oc2ncn(CC3(O)CCN(C(=O)[C@@H]4CCC(F)(F)C[C@H]4c4ccccc4)CC3)c(=O)c2N)c1 [Example 49, 5-amino-3-({1-[(1R,2R)-4,4-difluoro-2-phenylcyclohexane-1-carbonyl]-4-hydroxypiperidin-4-yl}methyl)-6-[3-(2-hydroxypropan-2yl)phenoxy]pyrimidin-4(3H)-one] | 138
N#Cc1ccc(Oc2ncn(CC3(O)CCN(C(=O)[C@@H]4CCC(F)(F)C[C@H]4c4ccccc4)CC3)c(=O)c2N)cc1F [Example 50, 4-{[5-amino-1-({1-[(1R,2R)-4,4-fluoro-2-phenylcyclohexane-1-carbonyl]-4-hydroxypiperidin-4-yl}methyl)-6-oxo-1,6-dihydropyrimidin-4-yl]oxy}-2-fluorobenzonitrile] | 116
N#Cc1ccc(Oc2ncn(CC3(O)CCN(C(=O)[C@@H]4CCC(F)(F)C[C@H]4c4ccccc4)CC3)c(=O)c2N)cc1Cl [Example 51, 4-{[5-amino-({1-[(1R,2R)-4,4difluoro-2-phenylcyclohexane-1-carbonyl]-4-hydroxypiperidin-4-yl}methyl)-6-oxo-1,6-dihydropyrimidin-4-yl]oxy}-2-chlorobenzonitrile] | 120
N#Cc1ccc(Oc2ncn(CC3(O)CCN(C(=O)[C@@H]4CCC(F)(F)C[C@H]4c4ccccc4)CC3)c(=O)c2N)c(Cl)c1 [Example 53, 4-{[5-amino-1-([1-[(1R,2R)-4,4-difluoro-2-phenylcyclohexane-1-carbanyl]-4-hydroxypiperidin-4-yl]methyl)-6-oxo-1,6-dihydropyrimidin-4-yl]oxy}-3-chlorobenzonitrile] | 439
O=C([C@@H]1CCC(F)(F)C[C@H]1c1ccccc1)N1CCC(O)(Cn2cnc(Oc3ccc(F)cc3)c(NCc3ccccc3)c2=O)CC1 [Example 57, 5-(benzylamino)-3-({1-[(1R,2R)-4,4-difluoro-2-phenylcyclohexane-1-carbonyl]-4-hydroxypiperidin-4-yl}methyl)-6-(4-fluorophenoxy)pyrimidin-4(3H)-one] | 611
NC(=O)c1ccc(Oc2ncn(CC3(O)CCN(C(=O)[C@@H]4CCC(F)(F)C[C@H]4c4ccccc4)CC3)c(=O)c2N)cc1 [Example 58, 4-{[5-amino-1-({1-[(1R,2R)-4,4-difluoro-2-phenylcyclohexane-1-carbonyl]-4-hydroxypiperidin-4-yl}methyl)-6-oxo-1,6-dihydropyrimidin-4-yl]oxy}benzamide] | 67
